Series [1] addresses récepteurs des benzodiazépines. Kind of series: Affinity for benzodiazepine receptors (3H diazepam binding, rat cortex membranes). More on the design: species or system rats. To be noted: concentration inhibiting 50 % of specific binding of 3H diazepam (10^-9M), 30 minutes at 0°C, read-out: C. I. 50 (the source's name). How it is done: La technique est inspirée de celle de Möhler et Okada : Science, Vol 198 p.849-851 (1977).
On homogénéise au vingtième (poids/volume) dans le sucrose 0,32 M, les cortex prélevés sur des cerveaux de rats mâles pesant 150 g en moyenne. Après centrifugation de l'homogénat à 1000 g pendant 10 minutes à 0°C, le surnageant est centrifugé à 30 000 g pendant 20 minutes à 4°C. Le culot est mis en suspension dans 20 volumes de tampon Tris HCl 50mM pH 7,4 et centrigué à 30 000 g pendant 20 minutes à 4°C. Le nouveau culot obtenu est mis en suspension dans 50 ml de tampon Krebs Tris HCl pH 7,4.
On fait ensuite incuber pendant 30 minutes à 0°C, 2 ml de suspension en présence de 3H diazepam à la concentration 10^-9M : • i) seule, • ii) avec des concentrations croissantes du produit à tester ou, • iii) pour déterminer la fixation non spécifique, avec du diazepam non radioactif à la concentration 10^-6M.
Les suspensions incubées sont filtrées sur Whatman GF/C et les filtres sont lavés par deux fois 5 ml de tampon Krebs Tris HCl pH 7,4 à 0°C.
La radioactivité des filtres est mesurées par scintillation liquide.
L'activité du produit est exprimée en C. I. 50 : concentration inhibant 50 % de la liaison spécifique de ^3H diazepam.

Another series relates to souris. Kind of series: Acute toxicity, oral administration in mice (DL0). The format is in vivo. To be noted: maximal dose causing no mortality in 8 days, mouse. From the text:
On a évalué les doses létales DLO des différents composés testés après administration par voie orale chez la souris.
On appelle DLO la dose maximale ne provoquant aucune mortalité en 8 jours.

For series [2], the system named is taux sérique de corticostérone. The experiment in a line: Action on serum corticosterone level after noise stress. The series is classed as in vivo. The settings on record: Rattus norvegicus; dose reducing by 50% the increase of serum corticosterone; oral route, 1 hour before stress; rats; read-out: DE50 (the source's name). From the text: Des lots de 5 rats sont constitués la veille de l'essai et placés dans un pièce au calme. Les composés sont administrés par voie orale le lendemain entre 8 et 9 heures du matin. Une heure après, le stress est appliqué : il consiste à changer les animaux de cage, à les placer dans une pièce où un poste de radio fonctionne bruyamment (90 décibels), puis 1/2 heure plus tard, à leur faire une piqûre intrapéritonéale sans injection. Dix minutes après celle-ci, les rats sont anesthésiés a l'halothane et des échantillons de sang sont prélevés par décapitation. Les taux de corticostérone sérique sont alors déterminés.
Les résultats sont exprimés en DE50, c'est-à-dire en dose de composé testé qui réduit de 50% l'augmentation du taux de corticostérone sérique chez les animaux traités par rapport aux animaux témoins.

With `O=c1c2cnc3ccccc3c2on1-c1ccccc1` [Exemple 1, 2-phényl isoxazolo (4,5-c) quinoléin-3 (2H) one], the IC50 in series [1] worked out at 120 nM. Further, the DL0 with souris is reported as not below 400 mg/kg.
As to `COc1ccc2ncc3c(=O)n(-c4ccccc4)oc3c2c1` [Exemple 4, 8-méthoxy 2-phényl isoxazolo (4,5-c) quinoléin-3-(2H)-one], the IC50 in series [1] came to 2460 nM. In the series with souris, this compound registered a DL0 of 200 mg/kg. For the same compound, the ED50 in series [2] is less than 100 mg/kg.
Take `O=c1c2cnc3ccc(C(F)(F)F)cc3c2on1-c1ccccc1` [Exemple 5, 8-trifluorométhyl 2-phényl isoxazolo (4,5-c) quinoléin-3-(2H)-one]: the DL0 in the series on souris is given as not below 200 mg/kg.
In turn, `COc1ccc2c(c1)ncc1c(=O)n(-c3ccccc3)oc12` [Exemple 3, 7-méthoxy 2-phénylisoxazolo (4,5-c) quinoléin-3-(2H)-one] came in with a DL0 in the series with souris not below 200 mg/kg.
With `O=c1c2cnc3ccc(F)cc3c2on1-c1ccccc1` [Exemple 2, 8-fluoro 2-phénylisoxazolo (4,5-c) quinoléin-3-(2H)-one], the IC50 in series [1] worked out at 400 nM. Further, the DL0 in the series with souris is reported as not below 400 mg/kg. The ED50 in series [2] was less than 50 mg/kg.
In the series with souris, `O=c1c2cnc3ccc(Cl)cc3c2on1-c1ccccc1` [Exemple 7, 8-chloro 2-phényl isoxazolo (4,5-c) quinoléin-3-(2H)-one] had a DL0 not below 100 mg/kg.

(Values after EP0168309A1, “Isoxazoloquinolinone derivatives, process and intermediates for their preparation, use as medicaments and compositions containing them” (ROUSSEL-UCLAF, priority 1984, dated 1986).)
